Data published in publication PMC8388125, “Kinetic and Structural Characterization of the Self-Labeling Protein Tags HaloTag7, SNAP-tag, and CLIP-tag” (Biochemistry, 2021).

Molecular target: T1, HaloTag7 (HT7) (Rhodococcus sp., UniProt P59336, A155T/A167V/A224E/C128F/C176G/D78G/E160K/E257K/G292T/H272N/K175M/K195N/L47V/L88M/N227D/P291S/S2A/S58T/T264A/V172T/Y273L/Y87F)
T1 construct: made in house; host or cells: E. coli BL21(DE3)-pLysS
Test: HT7 labeling kinetics via stopped flow (fluorescence anisotropy)
Type: biochemical
Conditions: HT7
Description: Labeling kinetics of HT7 with CA-TMR, CA-JF549, CA-CPY, CA-LIVE580, and CA-JF669 and labeling kinetics of HOB with CA-TMR were measured by recording fluorescence anisotropy changes over time using a BioLogic SFM-400 stopped-flow instrument (BioLogic Science Instruments, Claix, France) in a single-mixing configuration at 37 °C. HT7 protein and substrates in activity buffer were mixed in a 1:1 stoichiometry to reach a recordable speed for these fast reactions and to increase the information content of the traces. Concentrations were varied from 0.125 to 1 μM. The anisotropy of the free substrate was measured to obtain a baseline.
Kinetic stopped-flow data were preprocessed using a custom R script.[36],[37] Recorded pretrigger time points were removed, and time points were adjusted to start at time zero. Values from replicates were averaged. The anisotropy of the free dye was calculated by averaging anisotropy values of the baseline measurements. Preprocessed data were fitted to a kinetic model (eqs 5 and 6) described by differential eqs 7–10 using the DynaFit software.[38] The anisotropy of the free dye and the mixing delay of the stopped-flow machine were set as fixed offset and delay parameters in DynaFit. It was assumed that the protein substrate complex and the reacted product are contributing equally to the anisotropy signal. […] Standard deviations (normal distribution verified) and confidence intervals of fitted parameters were estimated with the Monte Carlo method[39] with standard settings (N = 1000, 5% worst fits discarded). In the case of SNAP kinetics with BG-TMR, the substrate concentration was fitted by DynaFit to rule out quantification errors of the BG-quenched fluorophore. Accurate fitting of the concentration was ensured by including conditions in which protein is limiting and no maximum FP value was reached.

T1 sequence (P59336 other isoform, or with tags, fused parts or gaps with the stated changes): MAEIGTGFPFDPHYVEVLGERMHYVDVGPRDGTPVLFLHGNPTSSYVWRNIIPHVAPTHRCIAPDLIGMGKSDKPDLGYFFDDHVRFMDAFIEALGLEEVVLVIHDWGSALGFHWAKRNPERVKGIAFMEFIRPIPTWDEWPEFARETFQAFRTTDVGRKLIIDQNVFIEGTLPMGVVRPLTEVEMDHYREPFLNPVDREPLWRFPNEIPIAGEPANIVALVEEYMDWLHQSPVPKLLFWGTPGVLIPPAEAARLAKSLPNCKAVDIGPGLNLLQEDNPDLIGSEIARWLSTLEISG

| Compound | fold increase in labeling kinetics relative to CA-PEG-biotin [fold] |
| --- | --- |
| CN(CCCC(=O)NCCOCCOCCOCCNC(=O)CCCC[C@H]1SC[C@H]2NC(=O)N[C@H]21)c1ccc2c(-c3cc(C(=O)NCCOCCOCCCCCCCl)ccc3C(=O)[O-])c3ccc(=[N+](C)C)cc-3oc2c1 [CA-TMR-biotin] | > 500 |

Same assay, conditions: HT7, stopped flow, model 2

| Compound | k2 (± S.D.) |
| --- | --- |
| C[Si]1(C)C2=CC(=[N+]3CCC3)C=CC2=C(c2c(F)c(C(=O)NCCOCCOCCCCCCCl)c(F)c(F)c2C(=O)[O-])c2ccc(N3CCC3)cc21 [CA-JF669] | 6.94 (± 0.47) s-1 |
| CN(CCCC(=O)NCCOCCOCCOCCNC(=O)CCCC[C@H]1SC[C@H]2NC(=O)N[C@H]21)c1ccc2c(-c3cc(C(=O)NCCOCCOCCCCCCCl)ccc3C(=O)[O-])c3ccc(=[N+](C)C)cc-3oc2c1 [CA-TMR-biotin] | 8.24 (± 0.28) s-1 |

Molecular target: T1, HaloTag7 (HT7)
Test: HT7 competitive labeling kinetics against CA-Alexa488
Type: biochemical
Conditions: HT7, nonfluorescent substrates, competition with CA-Alexa488, 37 °C
Description: Competitive kinetics were measured by recording FP over time using a microplate reader (Spark20M, Tecan). The final concentrations of CA-Alexa488 (50 nM) and HT7 protein (200 nM) remained constant with varying concentrations of nonfluorescent substrates (0–1 μM) in activity buffer supplemented with 0.5 g/L BSA. Assays were performed in black nonbinding flat bottom 96-well plates with a final reaction volume of 200 μL. Labeling reactions were started by adding the HT7 protein to wells containing CA-Alexa488 and nonfluorescent substrates using an electronic 96-channel pipettor (Integra Bioscience Corp., Hudson, NH). The FP of free CA-Alexa488 was measured to obtain a baseline.
(§1) Data were fitted to a simplified kinetic competition model (eqs 19 and 20) described by differential eqs 21–25 using DynaFit. The dead time of the measurements and baseline FP value were put in as fixed parameters. Standard deviations (normal distribution verified) and confidence intervals of fitted parameters were estimated with the Monte Carlo method with standard settings (N = 1000, 5% worst fits discarded). [drawing 19] 19 [drawing 20] 20 where P is the SLP protein, S is the fluorescent SLP substrate, I is the nonfluorescent SLP substrate (inhibitor), PS is the protein–fluorescent substrate conjugate, and PI is the protein–nonfluorescent substrate conjugate. [drawing 21] 21 [drawing 22] 22 [drawing 23] 23 [drawing 24] 24 [drawing 25] 25

| Compound | kapp (value ± standard deviation) |
| --- | --- |
| O=C(NCCOCCOCCCCCCCl)OC[C@@H]1[C@@H]2CCC#CCC[C@@H]21 [CA-BCN] | (2.04 ± 0.03) × 10^5 M^–1 s^–1 |
| [N-]=[N+]=NCC(=O)NCCOCCOCCCCCCCl [CA-N3] | (6.00 ± 0.06) × 10^3 M^–1 s^–1 |
| O=C(NCCOCCOCCCCCCCl)C1CC2C=CC1C2 (centres unmarked) [CA-Nor1] | (6.68 ± 0.06) × 10^3 M^–1 s^–1 |
| O=C(CC1CC2C=CC1C2)NCCOCCOCCCCCCCl (centres unmarked) [CA-Nor2] | (6.15 ± 0.07) × 10^3 M^–1 s^–1 |
| [N-]=[N+]=Nc1ccc(C(=O)NCCOCCOCCCCCCCl)cc1 [CA-PhN3] | (2.14 ± 0.02) × 10^4 M^–1 s^–1 |
| O=C(NCCOCCOCCCCCCCl)OC1C#CCCCCC1 (centres unmarked) [CA-SCO] | (2.52 ± 0.05) × 10^5 M^–1 s^–1 |
| Cc1nnc(-c2ccc(CC(=O)NCCOCCOCCCCCCCl)cc2)nn1 [CA-Tz] | (3.13 ± 0.03) × 10^4 M^–1 s^–1 |
| C=Cc1ccc(C(=O)NCCOCCOCCCCCCCl)cc1 [CA-Vbn] | (8.68 ± 0.07) × 10^3 M^–1 s^–1 |

Molecular target: T2, SNAP-tag (SNAP) (Homo sapiens, UniProt P16455, A127T/A154D/C150Q/C62A/G131K/G132T/G153L/K125A/K32I/L33F/M134L/N157G/Q115S/Q116H/R128A/R135S/S151G/S152D/S159E)
T2 construct: made in house; host or cells: E. coli BL21(DE3)-pLysS
T2 sequence (P16455 1-182 K32I/L33F/C62A/Q115S/Q116H/K125A/A127T/R128A/G131K/G132T/M134L/R135S/C150Q/S151G/S152D/G153L/A154D/N157G/S159E limits assumed): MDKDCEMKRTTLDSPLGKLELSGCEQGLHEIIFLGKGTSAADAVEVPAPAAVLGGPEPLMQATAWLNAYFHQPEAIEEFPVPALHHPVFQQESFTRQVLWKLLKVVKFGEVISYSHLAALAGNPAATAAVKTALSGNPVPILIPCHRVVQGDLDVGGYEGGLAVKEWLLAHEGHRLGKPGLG
Test: SNAP labeling kinetics via microplate reader (FP over time)
Type: biochemical
Conditions: SNAP, plate reader, kinetic model 1
Description: Labeling kinetics of SNAP and CLIP substrates were measured by recording FP over time using a microplate reader in a manner analogous to that of HT7 labeling kinetics described above with the following changes. The fluorescent substrate concentration was fixed to 20 nM, and protein concentrations were varied from 15 to 900 nM. Measurements were performed in SNAP-FP buffer.
Kinetic data from microplate reader assays were fitted to a simplified kinetic model (eq 13) described by differential eqs 14–16 using DynaFit. The dead time of the measurements and baseline FP value were put in as fixed parameters. Standard deviations (normal distribution verified) and confidence intervals of fitted parameters were estimated with the Monte Carlo method with standard settings (N = 1000, 5% worst fits discarded). In the case of BG, CP, and BC kinetics, the substrate concentration was fitted by DynaFit to rule out quantification errors of the BG, CP, or BC fluorophores. Accurate fitting of the concentration was ensured by including conditions under which protein is limiting and no maximum FP value was reached.

| Compound | kapp (value ± standard deviation) |
| --- | --- |
| CN(C)c1ccc2c(c1)C(C)(C)C1=CC(=[N+](C)C)C=CC1=C2c1cc(C(=O)NCc2ccc(COc3nc(N)nc4[nH]cnc34)cc2)ccc1C(=O)[O-] [BG-CPY] | (2.17 ± 0.01) × 10^5 M^–1 s^–1 |

Same assay, conditions: SNAP, plate reader, third kinetic model with slow aging event (*)

| Compound | kapp (value ± standard deviation) |
| --- | --- |
| CN(C)c1ccc2c(c1)C(C)(C)C1=CC(=[N+](C)C)C=CC1=C2c1cc(C(=O)NCc2ccc(COc3cc(Cl)nc(N)n3)cc2)ccc1C(=O)[O-] [CP-CPY] | (1.59 ± 0.01) × 10^4 ^* M^–1 s^–1 |

Molecular target: T2, SNAP-tag (SNAP)
Test: SNAP competitive labeling kinetics against BG-Alexa488
Type: biochemical
Conditions: nonfluorescent substrates, competition with BG-Alexa488
Description: Competitive kinetics were measured by recording FP over time using a microplate reader in a manner analogous to that for HT7 competition kinetics described above using 100 nM BG-Alexa488 as the fluorescent substrate in SNAP-FP buffer.
as §1

| Compound | kapp (value ± standard deviation) |
| --- | --- |
| Nc1nc(OCc2ccccc2)c2nc[nH]c2n1 [BG, benzylguanine] | (1.87 ± 0.05) × 10^4 M^–1 s^–1 |
| CC(=O)NCc1ccc(COc2nc(N)nc3[nH]cnc23)cc1 [BG-Ac] | (1.48 ± 0.05) × 10^4 M^–1 s^–1 |
| Nc1nc(OCc2ccc(CNC(=O)OC[C@@H]3[C@@H]4CCC#CCC[C@@H]43)cc2)c2nc[nH]c2n1 [BG-BCN] | (3.88 ± 0.07) × 10^4 M^–1 s^–1 |
| [N-]=[N+]=NCC(=O)NCc1ccc(COc2nc(N)nc3[nH]cnc23)cc1 [BG-N3] | (3.70 ± 0.09) × 10^4 M^–1 s^–1 |
| Nc1nc(OCc2ccc(CNC(=O)C3CC4C=CC3C4)cc2)c2nc[nH]c2n1 (centres unmarked) [BG-Nor1] | (7.34 ± 0.01) × 10^4 M^–1 s^–1 |
| [N-]=[N+]=Nc1ccc(C(=O)NCc2ccc(COc3nc(N)nc4[nH]cnc34)cc2)cc1 [BG-PhN3] | (4.78 ± 0.09) × 10^4 M^–1 s^–1 |
| Nc1nc(OCc2ccc(CNC(=O)OC3C#CCCCCC3)cc2)c2nc[nH]c2n1 (centres unmarked) [BG-SCO] | (3.75 ± 0.06) × 10^4 M^–1 s^–1 |
| Cc1nnc(-c2ccc(CC(=O)NCc3ccc(COc4nc(N)nc5[nH]cnc45)cc3)cc2)nn1 [BG-Tz] | (3.94 ± 0.08) × 10^4 M^–1 s^–1 |
| C=Cc1ccc(C(=O)NCc2ccc(COc3nc(N)nc4[nH]cnc34)cc2)cc1 [BG-Vbn] | (3.84 ± 0.07) × 10^4 M^–1 s^–1 |
| Nc1nc(Cl)cc(OCc2ccc(CNC(=O)OC[C@@H]3[C@@H]4CCC#CCC[C@@H]43)cc2)n1 [CP-BCN] | (3.34 ± 0.31) × 10^3 M^–1 s^–1 |
| [N-]=[N+]=NCC(=O)NCc1ccc(COc2cc(Cl)nc(N)n2)cc1 [CP-N3] | (6.36 ± 0.41) × 10^3 M^–1 s^–1 |
| Nc1nc(Cl)cc(OCc2ccc(CNC(=O)C3CC4C=CC3C4)cc2)n1 (centres unmarked) [CP-Nor1] | (1.77 ± 0.04) × 10^4 M^–1 s^–1 |
| [N-]=[N+]=Nc1ccc(C(=O)NCc2ccc(COc3cc(Cl)nc(N)n3)cc2)cc1 [CP-PhN3] | (2.91 ± 0.40) × 10^3 M^–1 s^–1 |
| Nc1nc(Cl)cc(OCc2ccc(CNC(=O)OC3C#CCCCCC3)cc2)n1 (centres unmarked) [CP-SCO] | (4.22 ± 0.61) × 10^3 M^–1 s^–1 |
| C=Cc1ccc(C(=O)NCc2ccc(COc3cc(Cl)nc(N)n3)cc2)cc1 [CP-Vbn] | (5.50 ± 0.45) × 10^3 M^–1 s^–1 |

Molecular target: T3, HT7^D106A (Rhodococcus sp., UniProt P59336, A155T/A167V/A224E/C128F/C176G/D106A/D78G/E160K/E257K/G292T/H272N/K175M/K195N/L47V/L88M/N227D/P291S/S2A/S58T/T264A/V172T/Y273L/Y87F)
T3 construct: made in house; host or cells: E. coli BL21(DE3)-pLysS
Test: Affinity of HT7^D106A for CA substrates by fluorescence polarization
Type: binding
Conditions: not given
Description: Binding affinities of HT7^D106A or HOB^D106A for chloroalkane (CA) substrates were determined by fluorescence polarization (FP, eq 1) measurements using a microplate reader (Spark20M, Tecan Group AG, Männedorf, Switzerland). The fluorescent substrates (10 nM) were titrated against different protein concentrations (0–250 μM) in activity buffer supplemented with 0.5 g/L bovine serum albumin (BSA). Assays were performed in black low-volume nonbinding 384-well plates (Corning Inc., Corning, NY) with a final volume of 20 μL. Obtained FP values were averaged and fitted to a single-site binding model (eq 2) to estimate Kd values for each fluorescent substrate. The FP value of each dye fully reacted with the native HT7 was used to improve fitting of the upper plateau of the curves by adding an extra data point at a protein concentration of 0.1 M. [drawing 1] 1 where FP is the fluorescence polarization, I∥ is the fluorescence intensity parallel to the excitation light polarization, I⊥ is the fluorescence intensity perpendicular to the excitation light polarization, and G is the grating factor (G = I∥/I⊥). [drawing 2] 2 where FPmin is the fluorescence polarization of the free fluorophore (lower plateau), FPmax is the maximal fluorescence polarization of fully bound fluorophore (upper plateau), Kd is the dissociation constant, and [protein] is the protein concentration.
Free binding energies were calculated from Kd values according to eq 4: [drawing 4] 4 where ΔG is the free binding energy, R is the universal gas constant, T is the temperature, and Kd is the dissociation constant.

T3 sequence (P59336 other isoform, or with tags, fused parts or gaps with the stated changes): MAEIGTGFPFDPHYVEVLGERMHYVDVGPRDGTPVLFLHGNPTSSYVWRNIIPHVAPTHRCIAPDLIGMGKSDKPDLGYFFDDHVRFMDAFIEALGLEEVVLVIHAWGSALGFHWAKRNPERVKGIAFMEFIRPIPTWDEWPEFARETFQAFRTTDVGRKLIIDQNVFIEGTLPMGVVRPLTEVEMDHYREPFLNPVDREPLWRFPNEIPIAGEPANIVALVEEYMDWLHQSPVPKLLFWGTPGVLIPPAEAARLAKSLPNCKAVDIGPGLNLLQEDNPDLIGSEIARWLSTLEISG

| Compound | Kd [µM] |
| --- | --- |
| CN(C)c1ccc2c(-c3ccc(C(=O)NCCOCCOCCCCCCCl)cc3C(=O)[O-])c3ccc(=[N+](C)C)cc-3oc2c1 [CA-5-TMR] | 39.4 |
